Experimental data reported in patent US20180200257A1, “METHODS FOR THE TREATMENT OF INFLAMMATORY DISORDERS” (Galapagos NV, priority 2015, published 2018).

Test system: subjects with moderately to severely active RA who have an inadequate response to methotrexate (MTX)
Experiment: Study 2 (monotherapy) - ACR responses (ACR20/50/70)
Assay type: in vivo, human
From the text: The terms “ACR20”, “ACR50” and “ACR70” as used herein are scores which indicate how much a patient's rheumatoid arthritis has improved according to criteria set out by the American College of Rheumatology (ACR). The ACR score represents a percentage. An ACR20 score means that a person's RA has improved by 20%, an ACR50 score means it has improved by 50%, and an ACR70 score means it has improved by 70%. Specifically, to qualify for an ACR20 score, a person with RA must have at least 20% fewer tender joints and at least 20% fewer swollen joints. In addition the patient must show a 20% improvement in at least three of the following five areas: the person's overall (global) assessment of his or her own RA, the physician's global assessment of the person's RA, the person's assessment of his or her own pain, the person's assessment of his or her own physical functioning, and the results of an erythrocyte sedimentation rate or C-reactive protein (CRP) blood test (both of which test for inflammation). ACR50 and ACR70 scores use the same criteria but require 50% and 70% improvement, respectively, (Felson et al., 1993). In the data presented herein the CRP blood test is used.
Randomized, double-blind, placebo-controlled, multicenter, phase IIb dose finding study of Compound 1 (dosed as a [Compound 1:HCl:3H2O]) administered for 24 weeks as monotherapy to subjects with moderately to severely active rheumatoid arthritis who have an inadequate response to methotrexate alone
Double-blind, placebo-controlled, monotherapy study in subjects with moderately to severely active RA who have an inadequate response to methotrexate (MTX) (oral or parenteral).
280 subjects randomized to one of 3 doses of Compound 1 (dosed as a [Compound 1:HCl:3H2O]) or to placebo, given once daily (q.d.).
Twelve weeks of treatment with Compound 1 (dosed as a [Compound 1:HCl:3H2O]) at 50 mg, 100 mg, or 200 mg q.d.; or placebo. At Week 12, all subjects on placebo and the subjects on the 50 mg dose who have not achieved 20% improvement in swollen joint count (SJC66) and tender joint count (TJC68) will be assigned to 100 mg q.d. in a blinded fashion and will continue treatment until Week 24. Subjects in the other groups will maintain their randomized treatment until Week 24.
The American College of Rheumatology (ACR) composite score, which evaluates clinical improvement relative to an initial assessment, is a commonly accepted efficacy end point for clinical trials in patients with rheumatoid arthritis. The ACR score correspond to a percentage improvement in pre-set parameters, and therefore measures the evolution of the disease in a patient. For example, ACR20 denotes at least 20% improvement in tender and swollen joint counts and in three of the following end points: global assessment by the patient, global assessment by the doctor, C reactive protein (CRP), patient's pain Visual Analogue Scale and Health Assessment Questionnaire Score. The number of swollen joints, ESR and CRP correlate with radiographic progression of joint damage, whereas tender joint counts, as well as global assessments by doctors and patients, and patients' reports of pain, are sensitive to change in clinical outcomes. Physical function, as assessed by the Health Assessment Questionnaire Score, is a potent predictor of the risk of disability in rheumatoid arthritis (Felson and American College of Rheumatology Committee to Reevaluate Improvement Criteria, 2007; Felson et al., 1993).
In particular, the list of parameters used to assess ACR score can be found in the Table XCVI below and the results of the ACR responses at week 12 via either NRI or LOCF are shown in the tables below. The Hommel-corrected p-value for the pairwise comparisons of each group with placebo is shown. […]

[1] = 50 mg q.d., week 1, 12 weeks results
[2] = 50 mg q.d., week 1, 24 weeks results
[3] = 50 mg q.d., week 2, 12 weeks results
[4] = 50 mg q.d., week 2, 24 weeks results
[5] = 50 mg q.d., week 4, 12 weeks results
[6] = 50 mg q.d., week 4, 24 weeks results
[7] = 50 mg q.d., week 12, 12 weeks results
[8] = 50 mg q.d., week 12, 24 weeks results
[9] = 50 mg q.d., week 16, 24 weeks results
[10] = 50 mg q.d., week 20, 24 weeks results
[11] = 50 mg q.d., week 24, 24 weeks results
[12] = 50 mg q.d., week 8, 12 weeks results
[13] = 50 mg q.d., week 8, 24 weeks results
[14] = 100 mg q.d., week 1, 12 weeks results
[15] = 100 mg q.d., week 1, 24 weeks results
[16] = 100 mg q.d., week 2, 12 weeks results
[17] = 100 mg q.d., week 2, 24 weeks results
[18] = 100 mg q.d., week 4, 12 weeks results
[19] = 100 mg q.d., week 4, 24 weeks results
[20] = 100 mg q.d., week 8, 24 weeks results
[21] = 100 mg q.d., week 12, 12 weeks results
[22] = 100 mg q.d., week 12, 24 weeks results
[23] = 100 mg q.d., week 16, 24 weeks results
[24] = 100 mg q.d., week 20, 24 weeks results
[25] = 100 mg q.d., week 24, 24 weeks results
[26] = 100 mg q.d., week 8, 12 weeks results
[27] = 200 mg q.d., week 1, 12 weeks results
[28] = 200 mg q.d., week 1, 24 weeks results
[29] = 200 mg q.d., week 2, 12 weeks results
[30] = 200 mg q.d., week 2, 24 weeks results
[31] = 200 mg q.d., week 4, 12 weeks results
[32] = 200 mg q.d., week 4, 24 weeks results
[33] = 200 mg q.d., week 8, 24 weeks results
[34] = 200 mg q.d., week 12, 12 weeks results
[35] = 200 mg q.d., week 12, 24 weeks results
[36] = 200 mg q.d., week 16, 24 weeks results
[37] = 200 mg q.d., week 20, 24 weeks results
[38] = 200 mg q.d., week 24, 24 weeks results
[39] = 200 mg q.d., week 8, 12 weeks results

## O=C(Nc1nc2cccc(-c3ccc(CN4CCS(=O)(=O)CC4)cc3)n2n1)C1CC1 [Compound 1, cyclopropanecarboxylic acid {5-[4-(1,1-dioxo-thiomorpholin-4-ylmethyl)-phenyl]-[1,2,4]triazolo[1,5-a]pyridin-2-yl}-amide]
[1]
  ACR20 (LOCF): 20.8
  ACR20 (NRI): 22.2%
  ACR50 (LOCF): 1.4%
  ACR50 (NRI): 1.4%
  ACR70 (LOCF): 0.0%
  ACR70 (NRI): 0.0%
[2]
  ACR20 (LOCF): 22.2
  ACR20 (NRI): 22.2%
  ACR50 (LOCF): 1.4%
  ACR50 (NRI): 1.4%
  ACR70 (LOCF): 0.0%
  ACR70 (NRI): 0.0%
[3]
  ACR20 (LOCF): 33.3%
  ACR20 (NRI): 34.7%
  ACR50 (LOCF): 5.6%
  ACR50 (NRI): 5.6%
  ACR70 (LOCF): 1.4%
  ACR70 (NRI): 1.4%
[4]
  ACR20 (LOCF): 33.3%
  ACR20 (NRI): 33.3%
  ACR50 (LOCF): 5.6%
  ACR50 (NRI): 5.6%
  ACR70 (LOCF): 1.4%
  ACR70 (NRI): 1.4%
[5]
  ACR20 (LOCF): 54.2%
  ACR20 (NRI): 54.2%
  ACR50 (LOCF): 13.9%
  ACR50 (NRI): 15.3%
  ACR70 (LOCF): 8.3%
  ACR70 (NRI): 8.3%
[6]
  ACR20 (LOCF): 52.8%
  ACR20 (NRI): 52.8%
  ACR50 (LOCF): 15.3%
  ACR50 (NRI): 15.3%
  ACR70 (LOCF): 8.3%
  ACR70 (NRI): 8.3%
[7]
  ACR50 (NRI): 36.1%%
  ACR70 (NRI): 8.3%%
[8]
  ACR50 (NRI): 34.7%
  ACR70 (NRI): 8.3%
[9]
  ACR50 (NRI): 33.3%
  ACR70 (NRI): 15.3%
[10]
  ACR50 (NRI): 27.8%
  ACR70 (NRI): 12.5%
[11]
  ACR50 (NRI): 31.9%
  ACR70 (NRI): 19.4%
[12]
  ACR20 (LOCF): 62.5%
  ACR20 (NRI): 61.1%
  ACR50 (LOCF): 16.7%
  ACR50 (NRI): 16.7%
  ACR70 (LOCF): 6.9%
  ACR70 (NRI): 6.9%
[13]
  ACR20 (LOCF): 61.1%
  ACR20 (NRI): 61.1%
  ACR50 (LOCF): 16.7%
  ACR50 (NRI): 16.7%
  ACR70 (LOCF): 6.9%
  ACR70 (NRI): 6.9%
[14]
  ACR20 (LOCF): 24.3%
  ACR20 (NRI): 24.3%
  ACR50 (LOCF): 10.0%
  ACR50 (NRI): 10.0%
  ACR70 (LOCF): 1.4%
  ACR70 (NRI): 1.4%
[15]
  ACR20 (LOCF): 24.3%
  ACR20 (NRI): 24.3%
  ACR50 (LOCF): 10.0%
  ACR50 (NRI): 10.0%
  ACR70 (LOCF): 1.4%
  ACR70 (NRI): 1.4%
[16]
  ACR20 (LOCF): 34.3%
  ACR20 (NRI): 32.9%
  ACR50 (LOCF): 8.6%
  ACR50 (NRI): 7.1%
  ACR70 (LOCF): 1.4%
  ACR70 (NRI): 1.4%
[17]
  ACR20 (LOCF): 35.7%
  ACR20 (NRI): 32.9%
  ACR50 (LOCF): 8.6%
  ACR50 (NRI): 7.1%
  ACR70 (LOCF): 1.4%
  ACR70 (NRI): 1.4%
[18]
  ACR20 (LOCF): 44.3%
  ACR20 (NRI): 44.3%
  ACR50 (LOCF): 18.6%
  ACR50 (NRI): 18.6%
  ACR70 (LOCF): 5.7%
  ACR70 (NRI): 5.7%
[19]
  ACR20 (LOCF): 44.3%
  ACR20 (NRI): 44.3%
  ACR50 (LOCF): 18.6%
  ACR50 (NRI): 18.6%
  ACR70 (LOCF): 5.7%
  ACR70 (NRI): 5.7%
[20]
  ACR50 (NRI): 25.7%
  ACR70 (NRI): 11.4%
[21]
  ACR50 (NRI): 34.3%%
  ACR70 (NRI): 18.6%%
[22]
  ACR50 (NRI): 35.7%
  ACR70 (NRI): 18.6%
[23]
  ACR50 (NRI): 38.6%
  ACR70 (NRI): 17.1%
[24]
  ACR50 (NRI): 41.4%
  ACR70 (NRI): 24.3%
[25]
  ACR50 (NRI): 40.0%
  ACR70 (NRI): 25.7%
[26]
  ACR20 (LOCF): 60.0%
  ACR20 (NRI): 61.4%
  ACR50 (LOCF): 25.7%
  ACR50 (NRI): 25.7%
  ACR70 (LOCF): 11.4%
  ACR70 (NRI): 11.4%
[27]
  ACR20 (LOCF): 39.1%
  ACR20 (NRI): 39.1%
  ACR50 (LOCF): 7.2%
  ACR50 (NRI): 7.2%
  ACR70 (LOCF): 1.4%
  ACR70 (NRI): 1.4%
[28]
  ACR20 (LOCF): 39.1%
  ACR20 (NRI): 39.1%
  ACR50 (LOCF): 7.2%
  ACR50 (NRI): 7.2%
  ACR70 (LOCF): 1.4%
  ACR70 (NRI): 1.4%
[29]
  ACR20 (LOCF): 53.6%
  ACR20 (NRI): 56.5%
  ACR50 (LOCF): 21.7%
  ACR50 (NRI): 21.7%
  ACR70 (LOCF): 4.3%
  ACR70 (NRI): 4.3%
[30]
  ACR20 (LOCF): 56.5%
  ACR20 (NRI): 56.5%
  ACR50 (LOCF): 21.7%
  ACR50 (NRI): 21.7%
  ACR70 (LOCF): 4.3%
  ACR70 (NRI): 4.3%
[31]
  ACR20 (LOCF): 62.3%
  ACR20 (NRI): 63.8%
  ACR50 (LOCF): 23.2%
  ACR50 (NRI): 23.2%
  ACR70 (LOCF): 11.6%
  ACR70 (NRI): 11.6%
[32]
  ACR20 (LOCF): 63.8%
  ACR20 (NRI): 62.3%
  ACR50 (LOCF): 23.2%
  ACR50 (NRI): 23.2%
  ACR70 (LOCF): 11.6%
  ACR70 (NRI): 11.6%
[33]
  ACR50 (NRI): 33.3%
  ACR70 (NRI): 17.4%
[34]
  ACR50 (NRI): 43.5%%
  ACR70 (NRI): 13.0%%
[35]
  ACR50 (NRI): 43.5%
  ACR70 (NRI): 13.0%
[36]
  ACR50 (NRI): 40.6%
  ACR70 (NRI): 18.8%
[37]
  ACR50 (NRI): 44.9%
  ACR70 (NRI): 24.6%
[38]
  ACR50 (NRI): 44.9%
  ACR70 (NRI): 24.6%
[39]
  ACR20 (LOCF): 72.5%
  ACR20 (NRI): 73.9%
  ACR50 (LOCF): 33.3%
  ACR50 (NRI): 33.3%
  ACR70 (LOCF): 17.4%
  ACR70 (NRI): 17.4%
